Results published in patent US20250074943A1, “DLL3 BINDING PEPTIDES AND USES THEREOF” (AMGEN INC., priority 2021, published 2025).
Like-named read-outs stand apart in the source and are kept apart here. Numbered stars: 1 amine (or outer) side, 2 acyl side, 3 side chain; on linkers, the order of the positions; unused ones are H or OH. Bridge positions count the residues as written; N and C are the ends. Primed or numbered codes have the meaning given here. Peptide text beside a SMILES is read from it. I, II: the chains in the order shown. * marks the point of attachment. X8 = NC(=O)[C@H](CCCCNC(=O)CCOCCOCCOCCOCCNC(=O)CCOCCOCCOCCN(CCOCCOCCOCCC(=O)NCCOCCOCCOCCOCCC(=O)NCCCC[C@H](NC(=O)CCC(=O)NCCCOCCOCCOCCCN[*:2])C(N)=O)C(=O)CNC(=O)CCOCCOCCOCCOCCNC(=O)CCC(=O)N1Cc2ccccc2C#Cc2ccccc21)NC(=O)CCC(=O)NCCCOCCOCCOCCCN[*:1]; X15 = NC(=O)[C@H](CCCCNC(=O)CCOCCOCCOCCN(CCOCCOCCOCCC(=O)NCCCC[C@H](NC(=O)CCC(=O)NCCCOCCOCCOCCCN[*:2])C(N)=O)C(=O)CNC(=O)CCOCCOCCOCCOCCNC(=O)CCC(=O)N1Cc2ccccc2C#Cc2ccccc21)NC(=O)CCC(=O)NCCCOCCOCCOCCCN[*:1]; X1 = NC(=O)[C@H](CCCCNC(=O)CCOCCOCCOCCOCCNC(=O)CCC(=O)N1Cc2ccccc2C#Cc2ccccc21)NC(=O)CCC(=O)NCCCOCCOCCOCCCN*; K(PEG4-DBCO-FEA) = Lys whose side chain carries PEG4-DBCO conjugated to fluoroethylazide (FEA); Ttds(4) = trioxatridecan-succinamic acid (linker), O=C(CCC(=O)[*:2])NCCCOCCOCCOCCCN[*:1]; Ttds(3) = Trioxatridecan-succinamic acid linker, O=C(CCC(=O)[*:2])NCCCOCCOCCOCCCN[*:1]

Experiments:
[1] = target: T1, recombinant DLL3 ectodomain (rhDLL3-Fc) (Homo sapiens, UniProt Q9NYJ7); experiment: Binding kinetic assay using Bio-layer interferometry (BLI); conditions: for binding mode to DLL3: peptides at 20, 4 and 0.8 μM, fit to 1:1 Langmuir binding model; for affinity: wider dose-response 10×KD to 0.1×KD
T1 construct: The recombinant DLL3 ectodomain (rhDLL3-Fc) was biotinylated; Fc
T1 sequence (Q9NYJ7 27-492 limits assumed): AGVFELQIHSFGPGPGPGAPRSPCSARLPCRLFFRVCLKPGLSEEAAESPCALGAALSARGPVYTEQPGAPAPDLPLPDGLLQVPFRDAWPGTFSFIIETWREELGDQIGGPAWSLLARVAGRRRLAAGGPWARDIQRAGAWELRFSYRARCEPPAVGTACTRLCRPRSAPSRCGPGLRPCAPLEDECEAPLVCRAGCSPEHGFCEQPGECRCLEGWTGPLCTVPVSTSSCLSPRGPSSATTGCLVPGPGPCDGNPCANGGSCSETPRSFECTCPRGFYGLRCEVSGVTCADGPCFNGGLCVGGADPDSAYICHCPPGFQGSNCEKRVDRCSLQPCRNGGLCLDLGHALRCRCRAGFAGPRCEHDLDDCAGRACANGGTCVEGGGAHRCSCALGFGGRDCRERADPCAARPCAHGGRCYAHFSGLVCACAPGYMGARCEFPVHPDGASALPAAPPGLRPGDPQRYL
Procedure: (§1) Binding kinetic assays were performed using Bio-layer interferometry (BLI) technology. The recombinant DLL3 ectodomain (rhDLL3-Fc) was biotinylated using EZ-Link Sulfo-NHS-LC-LC-Biotin Kit according to the manufacturer's protocol (Pierce by Thermo Fisher Scientific). The recombinant protein was incubated with an excess of NHS-LC-LC Biotin ester, in a molar ratio of 1:3 (protein: biotin), at 25° C. for 90 min. The un-reacted biotin ester was removed by subsequent buffer exchange on 0.5 ml Zeba spin desalting columns 7K MWCO (Pierce by Thermo Fisher Scientific).

[2] = target: T2, rhDLL3-Fc (Homo sapiens, UniProt Q9NYJ7); experiment: SPR binding / off-rate screening (Biacore T200); conditions: for binding to rhDLL3-Fc, complex half-life: single point SPR
T2 construct: The recombinant DLL3 ectodomain (rhDLL3-Fc) was biotinylated; Fc
T2 sequence (Q9NYJ7 27-492 limits assumed): T1 sequence (Q9NYJ7 27-492 limits assumed)
Procedure: as §1, with “Binding kinetic assays were performed using Bio-layer interferometry (BLI) technology.” left out
The off-rate screening of the peptides was done using a Biacore T200 instrument (Cytiva, Sweden). […] Sensorgrams were analyzed by Biacore T200 Evaluation Software 3.0 (Cytiva, Sweden): specific binding was obtained by subtracting unspecific binding to naked biosensors and a zero analyte concentration made of binding assay buffer (double referencing). […]

[3] = Table 4, ± values from three independent experiments, read-out: RT (residence time) (converted)
[4] = range over the seven peptides, read-out: residence time
[5] = Table 8, curve fitting of SPR sensorgrams, read-out: koff
[6] = Table 8, curve fitting of SPR sensorgrams, read-out: kon

Compound	residence time [1, 3]	koff [2, 5]	kon [2, 6]	binding to rhDLL3-Fc, complex half-life [2]	other results
CC(=O)N[C@@H](C)C(=O)N[C@@H](CCC(=O)O)C(=O)N[C@H](C(=O)N[C@H](C(=O)N[C@@H](CCC(=O)O)C(=O)N[C@@H](Cc1ccccc1)C(=O)N[C@@H](Cc1c[nH]c2ccccc12)C(=O)N[C@@H](Cc1c[nH]c2ccccc12)C(=O)N[C@H]1CSSC[C@@H](C(=O)N[C@H](C(=O)N[C@@H](Cc2c[nH]c3ccccc23)C(=O)NCC(=O)NCC(=O)NCCCOCCOCCOCCCNC(=O)CCC(=O)N[C@@H](CCCCNC(=O)CCOCCOCCOCCOCCNC(=O)CCC(=O)N2Cc3ccccc3C#Cc3ccccc32)C(N)=O)[C@@H](C)O)NC(=O)[C@H]([C@@H](C)O)NC(=O)[C@H](Cc2c[nH]c3ccccc23)NC(=O)[C@H](CC(N)=O)NC(=O)[C@H](CCC(=O)O)NC(=O)[C@H](CO)NC(=O)[C@H](CC(N)=O)NC(=O)CNC(=O)[C@H](CC(N)=O)NC1=O)C(C)C)[C@@H](C)O [PepSP1462] (Ac-AETVEFWWCNGNSENWTCTWGG-X1; disulfide 9-18 (inferred))	–	–	–	–	koff [2]: 0.0014 s⁻¹; kon [2]: 230000 M⁻¹ s⁻¹
Ac-AETVEFWWCNGNSENWTCTW-GG-Ttds-K(PEG4-DBCO-FEA)-NH2 (Ac-AETVEFWWCNGNSENWTCTWGG-{Ttds(3)-K(PEG4-DBCO-FEA)-NH2}; cysteine pairing not given here) [PepSP1538]	–	–	–	tight rhDLL3-Fc binders with a stable complex half-life	–
[Ac-AETVEFWWCNGNSENWTCTW-GG-Ttds-K(PEG3)]2-PEG4-DBCO-FEA (Ac-AETVEFWWCNGNSENWTCTWGG-{Ttds(4)-K(PEG3)}; not fully specified (bridges); printed as [Ac-AETVEFWWCNGNSENWTCTW-GG-Ttds-K(PEG3)]2-PEG4-DBCO-FEA; cysteine pairing not given here; also: dimer linked via PEG4-DBCO-FEA) [PepSP1581]	–	–	–	tight rhDLL3-Fc binders with a stable complex half-life	–
[Ac-AETVEFWWCNGNSENWTCTW-GG-Ttds-K(PEG4-PEG3)]2-PEG4-DBCO-FEA [PepSP1582]	–	–	–	tight rhDLL3-Fc binders with a stable complex half-life	–
[Ac-AETVEFWWCNGNSENWTCTW-GG-Ttds-K(Ttds-Ttds-PEG3)]2-PEG4-DBCO- [PepSP1583]	–	–	–	tight rhDLL3-Fc binders with a stable complex half-life	–

The next lines start with results.

residence time [1, 3]	koff [2, 5]	kon [2, 6]	Compound	binding to rhDLL3-Fc, complex half-life [2]	other results
1.83 min	0.0097 s⁻¹	140000 M⁻¹ s⁻¹	CC(C)[C@H](NC(=O)[C@@H](NC(=O)[C@H](CCC(=O)O)NC(=O)[C@H](C)N)[C@@H](C)O)C(=O)N[C@@H](CCC(=O)O)C(=O)N[C@@H](Cc1ccccc1)C(=O)N[C@@H](Cc1c[nH]c2ccccc12)C(=O)N[C@@H](Cc1c[nH]c2ccccc12)C(=O)N[C@H]1CSSC[C@@H](C(=O)N[C@H](C(=O)N[C@@H](Cc2c[nH]c3ccccc23)C(N)=O)[C@@H](C)O)NC(=O)[C@H]([C@@H](C)O)NC(=O)[C@H](Cc2c[nH]c3ccccc23)NC(=O)[C@H](CC(N)=O)NC(=O)[C@H](CCC(=O)O)NC(=O)[C@H](CO)NC(=O)[C@H](CC(N)=O)NC(=O)CNC(=O)[C@H](CC(N)=O)NC1=O [PepSP1171]	–	Kd ([1]; Table 4, global fitting 1:1 Langmuir, koff vs kon ratio, ± values from three independent experiments): 70 ± 19 nM; binding mode to DLL3 [1]: dose-response saturable binding; residence time [1, 4]: 1 to 3 min; affinity [1]: double-digit nM range; Kd ([2]; Table 8, curve fitting of SPR sensorgrams): 70 nM
1.61 min	–	–	CC(C)[C@H](NC(=O)[C@@H](NC(=O)[C@H](CCC(=O)O)NC(=O)[C@H](C)N)[C@@H](C)O)C(=O)N[C@@H](CCC(=O)O)C(=O)N[C@@H](Cc1ccccc1)C(=O)N[C@@H](Cc1c[nH]c2ccccc12)C(=O)N[C@@H](CO)C(=O)N[C@H]1CSSC[C@@H](C(=O)NCC(=O)N[C@@H](Cc2c[nH]c3ccccc23)C(N)=O)NC(=O)[C@H](CO)NC(=O)[C@H](Cc2ccc(O)cc2)NC(=O)[C@H]([C@@H](C)O)NC(=O)[C@H](Cc2ccc(O)cc2)NC(=O)[C@H](CCC(=O)O)NC(=O)[C@H](CC(=O)O)NC(=O)[C@H](C)NC(=O)[C@H](C)NC(=O)CNC(=O)CNC(=O)[C@H](Cc2c[nH]c3ccccc23)NC(=O)[C@H](Cc2c[nH]c3ccccc23)NC(=O)[C@H](CCCCN)NC1=O [PepSP1182] (H-AETVEFWSCKWWGGAADEYTYSCGW-NH2; disulfide 9-23; N-terminus assumed)	–	binding mode to DLL3 [1]: dose-response saturable binding; residence time [1, 4]: 1 to 3 min; affinity [1]: double-digit nM range
0.0227 min	–	–	C[C@@H](O)[C@@H]1NC(=O)CNC(=O)[C@H]([C@@H](C)O)NC(=O)[C@@H](NC(=O)CNC(=O)[C@@H](N)Cc2c[nH]c3ccccc23)CSSC[C@@H](C(=O)N[C@@H](Cc2c[nH]c3ccccc23)C(=O)N[C@@H](Cc2c[nH]c3ccccc23)C(N)=O)NC(=O)[C@H]([C@@H](C)O)NC(=O)[C@H](CCC(=O)O)NC(=O)[C@H](CC(N)=O)NC(=O)CNC(=O)[C@H](Cc2c[nH]c3ccccc23)NC1=O [PepSP1213] (H-WGCTGTWGNETCWW-NH2; disulfide 3-12; N-terminus assumed)	–	–
0.333 min	–	–	C[C@@H](O)[C@H](NC(=O)[C@@H]1CSSC[C@H](NC(=O)[C@H](CC(=O)O)NC(=O)[C@@H](N)Cc2c[nH]c3ccccc23)C(=O)N[C@@H](Cc2c[nH]c3ccccc23)C(=O)NCC(=O)N[C@@H](CC(N)=O)C(=O)N[C@@H]([C@@H](C)O)C(=O)N[C@@H](CC(=O)O)C(=O)N[C@@H](CC(=O)O)C(=O)N[C@@H](Cc2c[nH]c3ccccc23)C(=O)N[C@@H]([C@@H](C)O)C(=O)N1)C(=O)N[C@@H](Cc1c[nH]c2ccccc12)C(N)=O [PepSP1269] (H-WDCWGNTDDWTCTW-NH2; disulfide 3-12; N-terminus assumed)	–	–
–	0.00037 s⁻¹	110000 M⁻¹ s⁻¹	CCCCOCCOCCOCCC(=O)CCCCCCCCCCCCCCCC(=O)CCC(=O)NCCCOCCOCCOCCCNC(=O)CCC(=O)CCCCC[C@@H](CC(=O)CCC(=O)NCCCOCCOCCOCCCNC(=O)CNC(=O)CNC(=O)[C@@H](Cc1c[nH]c2ccccc12)NC(=O)[C@H](CC(=O)[C@H]1CCCC[C@@H](CN[C@@H](Cc2c[nH]c3ccccc23)NC(=O)[C@@H](Cc2c[nH]c3ccccc23)NC(=O)[C@H](CC(=O)[C@@H](CCC(=O)O)CC(=O)[C@H](CC(=O)[C@](C)(NC(=O)[C@@H](CCC(C)=O)CC(=O)CCC(C)=O)C(C)C)C(C)C)Cc2ccccc2)C(=O)C[C@H](CC(C)=O)C(=O)NCC(=O)NC(CC(C)=O)C(=O)C[C@H](CC)C(=O)NC(CCC(C)=O)C(=O)C[C@H](CC(C)=O)C(=O)CC(Cc2c[nH]c3ccccc23)C(=O)C[C@H]([C@H](C)O)C(=O)C1)[C@H](C)O)C(C)=O (some centres unmarked) [PepSP1489]	–	–
–	0.00031 s⁻¹	120000 M⁻¹ s⁻¹	I: Ac-AETVEFWWCNGNSENWTCTWGG / II: Ac-AETVEFWWCNGNSENWTCTWGG (disulfide I:9-I:18, II:9-II:18; linker I:C-II:C via X8) [PepSP1488]	–	–
–	0.00042 s⁻¹	76000 M⁻¹ s⁻¹	I: Ac-AETVEFWWCNGNSENWTCTWGG / II: Ac-AETVEFWWCNGNSENWTCTWGG (disulfide I:9-I:18, II:9-II:18; linker I:C-II:C via X15) [PepSP1487]	–	–
